Test results from US20240116988A1, “ANTI-ROR1 MACROCYCLIC PEPTIDES AND COMPOSITIONS” (BRISTOL-MYERS SQUIBB COMPANY, priority 2022, published 2024).
Positions of bridges follow the written chain, without caps; N, C: chain ends. Non-standard residues stand in square brackets, D forms with d. Residues, ends and D or L forms follow the SMILES beside them. ξ: configuration not given here. 2Nal = N[C@@H](Cc1ccc2ccccc2c1)C(=O)O; NMeF = CN[C@@H](Cc1ccccc1)C(=O)O; NMeL = CN[C@@H](CC(C)C)C(=O)O; Thr(3ξ) = CC(O)[C@H](N)C(=O)O; Phg = N[C@H](C(=O)O)c1ccccc1; ξY = NC(Cc1ccc(O)cc1)C(=O)O; NMeA = CN[C@@H](C)C(=O)O; Nle = CCCC[C@H](N)C(=O)O; ξF = NC(Cc1ccccc1)C(=O)O; ξL = CC(C)CC(N)C(=O)O; ξC = NC(CS)C(=O)O; ξA = CC(N)C(=O)O; Sar = CNCC(=O)O

Molecular target: T1, human ROR1 (Homo sapiens, UniProt Q01973)
T1 construct: host or cells: HEK 293T cells, Tet-on system induced with doxycycline
T1 sequence (Q01973 30-937): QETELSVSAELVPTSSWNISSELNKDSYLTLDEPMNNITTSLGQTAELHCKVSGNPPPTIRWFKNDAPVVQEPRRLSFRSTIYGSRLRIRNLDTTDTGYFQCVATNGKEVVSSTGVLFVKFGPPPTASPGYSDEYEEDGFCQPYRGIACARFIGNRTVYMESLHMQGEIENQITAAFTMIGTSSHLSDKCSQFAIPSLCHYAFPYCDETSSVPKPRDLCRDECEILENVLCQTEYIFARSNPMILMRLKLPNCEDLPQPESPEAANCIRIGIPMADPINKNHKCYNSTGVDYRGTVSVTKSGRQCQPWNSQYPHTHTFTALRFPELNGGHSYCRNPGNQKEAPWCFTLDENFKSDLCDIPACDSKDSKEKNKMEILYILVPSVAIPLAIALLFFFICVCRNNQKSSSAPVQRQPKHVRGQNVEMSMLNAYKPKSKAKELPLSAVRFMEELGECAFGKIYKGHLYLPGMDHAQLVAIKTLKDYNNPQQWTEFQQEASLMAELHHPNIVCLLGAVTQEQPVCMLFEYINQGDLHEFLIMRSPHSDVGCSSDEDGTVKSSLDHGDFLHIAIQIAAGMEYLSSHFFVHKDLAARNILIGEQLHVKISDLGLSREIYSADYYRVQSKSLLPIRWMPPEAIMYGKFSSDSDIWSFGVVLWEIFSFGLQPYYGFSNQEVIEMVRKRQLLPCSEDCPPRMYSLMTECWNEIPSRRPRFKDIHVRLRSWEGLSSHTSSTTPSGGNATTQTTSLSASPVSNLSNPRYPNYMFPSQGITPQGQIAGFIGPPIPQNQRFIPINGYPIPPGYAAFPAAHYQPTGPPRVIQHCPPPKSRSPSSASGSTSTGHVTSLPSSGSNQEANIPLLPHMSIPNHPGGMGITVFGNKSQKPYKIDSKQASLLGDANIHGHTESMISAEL
Assay: ROR1 high content cell-based binding assay
Details: read-out: ROR1 Binding 293T Human HC Cell Based Assay IC50
Summary of the method: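 Doxycycline-induced 293T cells expressing human ROR1, seeded overnight, were treated with compound plus 5-FAM-labeled ROR1-binding probe peptide (30 nM final) for 1 h at 37 °C. After washing and formaldehyde/Hoechst fixation, cell-bound probe fluorescence was read by high-content imaging.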

Row | IC50 [nM] | Compound
1 | 43 | CC(C)C[C@@H]1NC(=O)[C@H](Cc2ccc(O)cc2)NC(=O)[C@H](Cc2ccc3ccccc3c2)NC(=O)CSC[C@@H](C(=O)NCC(N)=O)NC(=O)[C@H](CC(C)C)NC(=O)[C@H](Cc2ccccc2)N(C)C(=O)[C@H](Cc2ccc(O)cc2)NC(=O)[C@H](Cc2c[nH]c3ccccc23)NC(=O)CNC(=O)[C@H](CO)NC(=O)[C@H](Cc2ccc(O)cc2)NC(=O)[C@H](C(C)C)NC1=O [Example 1092] ({CH2CO}-[2Nal]YLVYSGWY[NMeF]LCG-NH2; thioether N-12)
2 | 324 | CC(C)C[C@@H]1NC(=O)[C@H](Cc2ccc(O)cc2)NC(=O)[C@H](c2ccccc2)NC(=O)CSC[C@@H](C(=O)NCC(N)=O)NC(=O)[C@H](CC(C)C)NC(=O)[C@H](Cc2ccccc2)N(C)C(=O)[C@H](Cc2ccc(O)cc2)NC(=O)[C@H](Cc2c[nH]c3ccccc23)NC(=O)CNC(=O)[C@H](CO)NC(=O)[C@H](Cc2ccc(O)cc2)NC(=O)[C@H](C(C)C)NC1=O [Example 1093] ({CH2CO}-[Phg]YLVYSGWY[NMeF]LCG-NH2; thioether N-12)
3 | 14 | CC(C)C[C@@H]1NC(=O)[C@H](Cc2c[nH]c3ccccc23)NC(=O)[C@H](Cc2ccc(O)cc2)NC(=O)[C@H](Cc2c[nH]c3ccccc23)NC(=O)CNC(=O)[C@H](CC(=O)O)NC(=O)[C@H](Cc2ccc(O)cc2)NC(=O)[C@H](C(C)C)NC(=O)[C@@H]2CCCN2C(=O)[C@H](Cc2ccc(O)cc2)NC(=O)[C@H](Cc2ccccc2)NC(=O)CSC[C@@H](C(N)=O)NC1=O [Example 1094] ({CH2CO}-FYPVYDGWYWLC-NH2; thioether N-12)
4 | 11 | CC(C)C[C@@H]1NC(=O)[C@H](Cc2c[nH]c3ccccc23)NC(=O)[C@H](Cc2ccc(O)cc2)NC(=O)[C@H](Cc2c[nH]c3ccccc23)NC(=O)CNC(=O)[C@H](CO)NC(=O)[C@H](Cc2ccc(O)cc2)NC(=O)[C@H](C(C)C)NC(=O)[C@@H]2CCCN2C(=O)[C@H](Cc2ccc(O)cc2)NC(=O)[C@H](Cc2ccccc2)NC(=O)CSC[C@@H](C(N)=O)NC1=O [Example 1095] ({CH2CO}-FYPVYSGWYWLC-NH2; thioether N-12)
5 | 4 | CCCC[C@@H]1NC(=O)[C@H](Cc2ccc(O)cc2)NC(=O)[C@H](Cc2c[nH]c3ccccc23)NC(=O)[C@H](C)N(C)C(=O)[C@H](CCCNC(=N)N)NC(=O)[C@H](CO)NC(=O)[C@H](CO)NC(=O)[C@H](Cc2c[nH]c3ccccc23)NC(=O)[C@H](Cc2ccc(O)cc2)NC(=O)[C@H](Cc2ccccc2)NC(=O)CSC[C@@H](C(N)=O)NC(=O)[C@H](CC(C)C)N(C)C1=O [Example 1096] ({CH2CO}-FYWSSR[NMeA]WY[Nle][NMeL]C-NH2; thioether N-12)
6 | 63 | CC(C)[C@@H]1NC(=O)CN(C)C(=O)[C@H](CCCNC(=N)N)NC(=O)[C@H](Cc2ccccc2)NC(=O)CSC[C@@H](C(N)=O)NC(=O)[C@H](C(C)C)NC(=O)[C@H](Cc2c[nH]c3ccccc23)NC(=O)[C@H](Cc2ccc(O)cc2)NC(=O)[C@H](Cc2c[nH]c3ccccc23)NC(=O)CNC(=O)[C@H](Cc2c[nH]c3ccccc23)NC(=O)[C@H](CCCNC(=N)N)NC1=O [Example 1097] ({CH2CO}-FR[Sar]VRWGWYWVC-NH2; thioether N-12)
7 | 121 | CC(C)C[C@@H]1NC(=O)[C@H](CC(N)=O)NC(=O)[C@H](Cc2ccccc2)N(C)C(=O)CNC(=O)[C@H](Cc2ccc(O)cc2)NC(=O)[C@H](Cc2ccccc2)NC(=O)CSC[C@@H](C(=O)NCC(N)=O)NC(=O)[C@H](Cc2c[nH]c3ccccc23)NC(=O)[C@H](Cc2ccc(O)cc2)NC1=O [Example 1100] ({CH2CO}-FYG[NMeF]NLYWCG-NH2; thioether N-9)
8 | 97 | CC(C)C[C@@H]1NC(=O)[C@H](Cc2ccccc2)NC(=O)[C@H](Cc2ccccc2)N(C)C(=O)CNC(=O)[C@H](Cc2ccc(O)cc2)NC(=O)[C@H](Cc2ccccc2)NC(=O)CSC[C@@H](C(N)=O)NC(=O)[C@H](Cc2c[nH]c3ccccc23)NC(=O)[C@H](Cc2ccc(O)cc2)NC1=O [Example 1102] ({CH2CO}-FYG[NMeF]FLYWC-NH2; thioether N-9)
9 | 923 | CN1C(=O)CNC(=O)[C@H](Cc2ccc(O)cc2)NC(=O)[C@H](Cc2ccccc2)NC(=O)CSC[C@@H](C(N)=O)NC(=O)[C@H](Cc2c[nH]c3ccccc23)NC(=O)[C@H](Cc2ccc(O)cc2)NC(=O)[C@H](Cc2ccccc2)NC(=O)[C@H](CC(N)=O)NC(=O)[C@@H]1Cc1ccccc1 [Example 1103] ({CH2CO}-FYG[NMeF]NFYWC-NH2; thioether N-9)
10 | 31 | CC(C)C[C@@H]1NC(=O)[C@H](CC(N)=O)NC(=O)[C@H](Cc2ccccc2)N(C)C(=O)CNC(=O)[C@H](Cc2ccc(O)cc2)NC(=O)[C@H](Cc2ccccc2)NC(=O)CSCC(C(N)=O)NC(=O)[C@H](Cc2c[nH]c3ccccc23)NC(=O)[C@H](Cc2ccccc2)NC1=O (some centres unmarked) [Example 1104] ({CH2CO}-FYG[NMeF]NLFW[ξC]-NH2; thioether N-9)
11 | 675 | CC(C)C[C@@H]1NC(=O)CNC(=O)[C@H](Cc2ccccc2)N(C)C(=O)CNC(=O)[C@H](Cc2ccc(O)cc2)NC(=O)[C@H](Cc2ccccc2)NC(=O)CSC[C@@H](C(N)=O)NC(=O)[C@H](Cc2c[nH]c3ccccc23)NC(=O)[C@H](Cc2ccc(O)cc2)NC1=O [Example 1105] ({CH2CO}-FYG[NMeF]GLYWC-NH2; thioether N-9)
12 | 483 | CC(C)C[C@@H]1NC(=O)[C@H](CC(C)C)NC(=O)[C@H](Cc2ccccc2)N(C)C(=O)CNC(=O)[C@H](Cc2ccc(O)cc2)NC(=O)[C@H](Cc2ccccc2)NC(=O)CSC[C@@H](C(N)=O)NC(=O)[C@H](Cc2c[nH]c3ccccc23)NC(=O)[C@H](Cc2ccc(O)cc2)NC1=O [Example 1106] ({CH2CO}-FYG[NMeF]LLYWC-NH2; thioether N-9)
13 | 553 | CC(C)C[C@@H]1NC(=O)C(C)NC(=O)[C@H](Cc2ccccc2)N(C)C(=O)CNC(=O)[C@H](Cc2ccc(O)cc2)NC(=O)[C@H](Cc2ccccc2)NC(=O)CSC[C@@H](C(N)=O)NC(=O)[C@H](Cc2c[nH]c3ccccc23)NC(=O)[C@H](Cc2ccc(O)cc2)NC1=O (some centres unmarked) [Example 1107] ({CH2CO}-FYG[NMeF][ξA]LYWC-NH2; thioether N-9)
14 | 404 | CC(C)C[C@@H]1NC(=O)[C@H](CC(N)=O)NC(=O)[C@H](Cc2ccccc2)N(C)C(=O)CNC(=O)[C@H](Cc2ccccc2)NC(=O)[C@H](Cc2ccccc2)NC(=O)CSC[C@@H](C(N)=O)NC(=O)[C@H](Cc2c[nH]c3ccccc23)NC(=O)[C@H](Cc2ccc(O)cc2)NC1=O [Example 1108] ({CH2CO}-FFG[NMeF]NLYWC-NH2; thioether N-9)
15 | 574 | CSCC[C@@H]1NC(=O)[C@H](Cc2ccccc2)N(C)C(=O)CNC(=O)[C@H](Cc2ccc(O)cc2)NC(=O)[C@H](Cc2ccccc2)NC(=O)CSC[C@@H](C(N)=O)NC(=O)[C@H](Cc2c[nH]c3ccccc23)NC(=O)[C@H](Cc2ccc(O)cc2)NC(=O)[C@H](CC(C)C)NC1=O [Example 1109] ({CH2CO}-FYG[NMeF]MLYWC-NH2; thioether N-9)
16 | 361 | CC(C)C[C@@H]1NC(=O)[C@H](CCC(N)=O)NC(=O)[C@H](Cc2ccccc2)N(C)C(=O)CNC(=O)[C@H](Cc2ccc(O)cc2)NC(=O)[C@H](Cc2ccccc2)NC(=O)CSC[C@@H](C(N)=O)NC(=O)[C@H](Cc2c[nH]c3ccccc23)NC(=O)[C@H](Cc2ccc(O)cc2)NC1=O [Example 1110] ({CH2CO}-FYG[NMeF]QLYWC-NH2; thioether N-9)
17 | 479 | CC(C)C[C@@H]1NC(=O)[C@H](CO)NC(=O)[C@H](Cc2ccccc2)N(C)C(=O)CNC(=O)[C@H](Cc2ccc(O)cc2)NC(=O)[C@H](Cc2ccccc2)NC(=O)CSC[C@@H](C(N)=O)NC(=O)[C@H](Cc2c[nH]c3ccccc23)NC(=O)[C@H](Cc2ccc(O)cc2)NC1=O [Example 1111] ({CH2CO}-FYG[NMeF]SLYWC-NH2; thioether N-9)
18 | 147 | CC(C)C[C@@H]1NC(=O)[C@H](Cc2ccc(O)cc2)NC(=O)[C@H](Cc2ccccc2)N(C)C(=O)CNC(=O)[C@H](Cc2ccc(O)cc2)NC(=O)C(Cc2ccccc2)NC(=O)CSC[C@@H](C(=O)NCC(N)=O)NC(=O)[C@H](Cc2c[nH]c3ccccc23)NC(=O)C(Cc2ccc(O)cc2)NC1=O (some centres unmarked) [Example 1112] ({CH2CO}-[ξF]YG[NMeF]YL[ξY]WCG-NH2; thioether N-9)
19 | 100 | CC(C)CC1NC(=O)[C@H](Cc2ccc(O)cc2)NC(=O)[C@H](Cc2ccccc2)NC(=O)CSC[C@@H](C(=O)NCC(N)=O)NC(=O)[C@H](Cc2ccccc2)N(C)C(=O)[C@H](Cc2ccc(O)cc2)NC(=O)[C@H](Cc2c[nH]c3ccccc23)NC(=O)C(Cc2ccc(O)cc2)NC(=O)[C@H](C(C)C)NC1=O (some centres unmarked) [Example 1113] ({CH2CO}-FY[ξL]V[ξY]WY[NMeF]CG-NH2; thioether N-9)
20 | 470 | CC(C)C[C@@H]1NC(=O)[C@H](C(C)O)NC(=O)[C@H](Cc2ccccc2)N(C)C(=O)CNC(=O)[C@H](Cc2ccc(O)cc2)NC(=O)[C@H](Cc2ccccc2)NC(=O)CSC[C@@H](C(N)=O)NC(=O)[C@H](Cc2c[nH]c3ccccc23)NC(=O)[C@H](Cc2ccc(O)cc2)NC1=O (some centres unmarked) [Example 1114] ({CH2CO}-FYG[NMeF][Thr(3ξ)]LYWC-NH2; thioether N-9)
21 | 94 | CC(C)C[C@@H]1NC(=O)[C@H](Cc2ccc(O)cc2)NC(=O)[C@H](Cc2ccccc2)N(C)C(=O)CNC(=O)[C@H](Cc2ccc(O)cc2)NC(=O)[C@H](Cc2ccccc2)NC(=O)CSC[C@@H](C(N)=O)NC(=O)[C@H](Cc2c[nH]c3ccccc23)NC(=O)[C@H](Cc2ccc(O)cc2)NC1=O [Example 1115] ({CH2CO}-FYG[NMeF]YLYWC-NH2; thioether N-9)
22 | 183 | CC(C)C[C@@H]1NC(=O)[C@@H](C)NC(=O)[C@H](Cc2ccccc2)N(C)C(=O)CNC(=O)[C@H](Cc2ccc(O)cc2)NC(=O)[C@H](Cc2ccccc2)NC(=O)CSC[C@@H](C(N)=O)NC(=O)[C@H](Cc2c[nH]c3ccccc23)NC(=O)[C@H](Cc2ccc(O)cc2)NC1=O [Example 1116] ({CH2CO}-FYG[NMeF][dA]LYWC-NH2; thioether N-9)
23 | 69 | CC(C)C[C@@H]1NC(=O)[C@H](Cc2c[nH]cn2)NC(=O)[C@H](Cc2ccccc2)N(C)C(=O)CNC(=O)[C@H](Cc2ccc(O)cc2)NC(=O)[C@@H](Cc2ccccc2)NC(=O)CSC[C@@H](C(N)=O)NC(=O)[C@H](Cc2c[nH]c3ccccc23)NC(=O)[C@H](Cc2ccc(O)cc2)NC1=O [Example 1117] ({CH2CO}-[dF]YG[NMeF]HLYWC-NH2; thioether N-9)
